Earlier results in patent US11021437B2, “Pharmaceutical formulation for sublingual or buccal delivery of epinephrine or a pro-drug thereof” (Iono Pharma, LLC, priority 2016, dated 2021).

Columns and labels:
[1] = 0.01 mg/kg subcutaneously in the deltoid region
[2] = in vivo

time to maximum plasma epinephrine concentration [1] [min]	t1/2 hydrolysis in vitro [days]	t1/2 oxidation in vitro [days]	SMILES	delay before onset of seizure [2] [min]
≤ 34 ± 14	–	–	CNC[C@H](O)c1ccc(O)c(O)c1 [Epinephrine]	–
–	700	300	CNCC(O)c1ccc(OC(=O)C(C)(C)C)c(OC(=O)C(C)(C)C)c1 (stereo not shown) [Structure 7D, 4-(1-hydroxy-2-(methylamino)ethyl)-1,2-phenylene bis(2,2-dimethylpropanoate)]	8 to 10
